Literature values as cited in patent publication US20160017431A1, “Methods for Predicting EGFR Tyrosine Kinase Inhibitor Efficacy” (Driver Group, priority 2014, published 2016).

System: EGFR mutants carrying the T790M mutation
Conditions: statement 'has been shown', no data given

Compound | inhibition of the tyrosine kinase activity of EGFR mutants carrying the T790M mutation
COc1cc(N2CCC(N(C)C)CC2)ccc1Nc1ncc(Cl)c(Nc2ccccc2P(C)(C)=O)n1 [AP26113] | able to inhibit the tyrosine kinase activity
COc1cc2ncnc(Nc3ccc(F)c(Cl)c3)c2cc1NC(=O)/C=C/CN1CCCCC1 [Dacomitinib] | able to inhibit the tyrosine kinase activity
